# Results as given in ChEMBL document CHEMBL5252552, “Defined concatenated α6α1β3γ2 GABAA receptor constructs reveal dual action of pyrazoloquinolinone allosteric modulators” (Bioorg Med Chem, 2019).
# Key:
# Type in all cases: cell-based
# Settings in all cases: Oocyte, filed as positive allosteric modulator
# [1] = biological target: Gamma-aminobutyric acid receptor subunit alpha-1/alpha-6/beta-3/gamma-2 (Rattus norvegicus) (UniProt P18508+P30191+P62813+P63079); assay: Positive allosteric modulation of rat recombinant GABAA gamma2beta3alpha1-beta3alpha6 receptor expressed in Xenopus laevis oocytes assessed as maximal current at -80 mV holding potential under less potent phase in presence of GABA EC1 to 1.5 by two-electrode voltage-clamp assay relative to control
# [2] = biological target: T1, Gamma-aminobutyric acid receptor subunit alpha-6/beta-3/gamma-2 (Rattus norvegicus) (UniProt P18508+P30191+P63079); assay: Positive allosteric modulation of rat recombinant GABAA alpha6beta3gamma2 receptor expressed in Xenopus laevis oocytes assessed as maximal efficacy at -80 mV holding potential at 100 nM in presence of GABA EC1 to 1.5 by two-electrode voltage-clamp assay
# [3] = biological target: T1, Gamma-aminobutyric acid receptor subunit alpha-6/beta-3/gamma-2 (Rattus norvegicus); assay: Positive allosteric modulation of rat recombinant GABAA alpha6beta3gamma2 receptor expressed in Xenopus laevis oocytes assessed as maximal efficacy at -80 mV holding potential at 3 uM in presence of GABA EC1 to 1.5 by two-electrode voltage-clamp assay
structure (smiles),measurement,setting,value
COc1ccc(-n2nc3c4ccc(Br)cc4[nH]cc-3c2=O)cc1,%max,[1],230%
same,Efficacy,[2],46%
same,Efficacy,[3],377%
